These results are taken from ChEMBL document CHEMBL5303711, “ECBD screening data for assay EOS300108” (2023).

The data set can be described thus: Cytotoxicity activity against human HepG2 cells assessed by CellTiter-Glo luminescent cell viability assay. The format is toxicity, cell-based. Further details: assay stage confirmatory assay, source tissue liver. The note with it: HepG2 cells, read-out: IC50 relative. A general note: In ATP-based viability assays light output follows the ATP content of the culture.

Structures are written as SMILES. Calls of active or inactive are those of the source. No rule for the calls is given here.

As to `CCS(=O)(=O)N1CCc2ccc(NC(=O)Nc3cccc(C)c3)cc21`, the CC50 was 2.2 µM (active).

`CCS(=O)(=O)N1CCc2ccc(NC(=O)Nc3cccc(F)c3)cc21`: the CC50 was 5.2 µM (active).

For the compound `CSc1ccc(NC(=O)Nc2ccc3c(c2)N(S(C)(=O)=O)CC3)cc1`, the CC50 is 8.1 µM (inactive).

Consider `CCN1CCN(c2cc3c(cc2S(=O)(=O)N2CCCCCC2)C(=O)Nc2ccccc2O3)CC1`, for which the CC50 is 10.9 µM (active).

Regarding `Cc1nc[nH]c1CNCCCc1ccc(C(C)C)cc1`, the CC50 is 13.6 µM (inactive).

As to `CSc1cccc(NC(=O)Nc2ccc3c(c2)N(S(C)(=O)=O)CC3)c1`, the CC50 is 5.4 µM (active).

On to `Cc1cc(C)cc(C(=O)N2CCN(c3cc(=O)n(C(C)C)c(=O)n3C(C)C)CC2)c1`, for which the CC50 was 3.5 µM (active).

As to `CCS(=O)(=O)N1CCc2ccc(NC(=O)Nc3ccc(Cl)cc3)cc21`, the CC50 is 14.3 µM (inactive).

As for `CCc1onc(C)c1C1CCCN1Cc1ccc(OC)c(O)c1` (centres undefined), the CC50 is 6.1 µM (active).

Consider `Cc1cc(C)cc(NC(=O)N(C)CCc2scnc2C)c1`, for which the CC50 was 50 µM (inactive).

In the case of `COc1ccc(C)cc1NC(=O)N1CCC(n2cnc3cc(F)ccc3c2=O)CC1`, the CC50 is 9.9 µM (active).

In the case of `Cc1ccc(NC(=O)Nc2ccc3c(c2)N(S(C)(=O)=O)CC3)cc1`, the CC50 is 8.6 µM (inactive).

For the compound `CCc1ccc(NC(=O)Nc2ccc3c(c2)N(S(C)(=O)=O)CC3)cc1`, the CC50 is 2.3 µM (active).

Turning to `Cc1ccc(NC(=O)Nc2ccc3c(c2)N(S(C)(=O)=O)CC3)cc1F`, the CC50 is 3.6 µM (inactive).

Turning to `COc1cc(-c2cc(C)no2)ccc1S(=O)(=O)Nc1cc(OC)c(OC)c(OC)c1`, the CC50 is 4.5 µM (active).

Turning to `CCS(=O)(=O)N1CCc2ccc(NC(=O)Nc3cccc(Cl)c3)cc21`, the CC50 was 2.6 µM (active).

For `CCCS(=O)(=O)N1CCc2ccc(NC(=O)Nc3cccc(OC)c3)cc21`, the CC50 is 4.9 µM (active).

Consider `CCc1ccc(NC(=O)Nc2ccc3c(c2)N(S(=O)(=O)CC)CC3)cc1`, for which the CC50 is 2.4 µM (active).

For `Cc1ccc(NC(=O)Nc2ccc3c(c2)N(S(C)(=O)=O)CC3)cc1C`, the CC50 was 16.8 µM (inactive).

In the case of `CCCC(=O)Nc1ccc(Nc2nc(C)cc(N(CC)CC)n2)cc1`, the CC50 was 4.2 µM (active).

Consider `CCN(CC)CCCNC(=O)C1CCN(c2ncc(-c3ccccc3)cn2)CC1`, for which the CC50 is 9.7 µM (active).

Take `CS(=O)(=O)N1CCc2ccc(NC(=O)Nc3cccc(Cl)c3)cc21`: the CC50 is 1.3 µM (active).

Regarding `CC(C)Cn1c(=O)c2sccc2n2c(=O)n(CC(=O)Nc3ccc(F)cc3)nc12`, the CC50 was 50 µM (inactive).

For `CCCS(=O)(=O)N1CCc2ccc(NC(=O)Nc3ccc(OCC)cc3)cc21`, the CC50 was 50 µM (inactive).

Consider `CS(=O)(=O)N1CCc2ccc(NC(=O)Nc3ccc(Br)cc3)cc21`, for which the CC50 is 3.2 µM (inactive).

As for `Cc1cccc(NC(=O)Nc2ccc3c(c2)N(S(C)(=O)=O)CC3)c1`, the CC50 was 3.3 µM (active).

As to `O=C1Nc2cc(Cl)ccc2Oc2ccc(S(=O)(=O)N3CCCC3)cc21`, the CC50 is 6.4 µM (active).

With `CCc1cccc(NC(=O)Nc2ccc3c(c2)N(S(C)(=O)=O)CC3)c1`, the CC50 was 2.9 µM (active).

Take `CCN(CC)CCNC(=O)C1CCCN(c2ncc(-c3ccc(C)cc3)cn2)C1` (centres undefined): the CC50 was 4.3 µM (active).

As for `CS(=O)(=O)N1CCc2ccc(NC(=O)Nc3ccc(Cl)cc3)cc21`, the CC50 was 3.9 µM (inactive).

For `CCCS(=O)(=O)N1CCc2ccc(NC(=O)Nc3ccc(SC)cc3)cc21`, the CC50 was 18.2 µM (inactive).

Turning to `COc1ccc(NC(=O)Nc2ccc3c(c2)N(S(C)(=O)=O)CC3)cc1Cl`, the CC50 was 10.5 µM (inactive).

On to `COc1ccccc1NC(=O)N1CCC(n2cnc3ccc(C)cc3c2=O)CC1`, for which the CC50 was 3.6 µM (active).

For `CN1CCN(c2cc3c(cc2S(=O)(=O)N2CCCCCC2)C(=O)Nc2ccccc2O3)CC1`, the CC50 is 11.5 µM (active).
